Four molecules from paper PMC8847575, “HSL1 and BAM1/2 impact epidermal cell development by sensing distinct signaling peptides” (Nature Communications, 2022) can be followed below.

The target of experiment [1] is T1, HSL1 ectodomain (Arabidopsis thaliana, UniProt Q9SGP2).
T1 construct: HSL1 (residues 17-618, AT1G28440); azurocidin or Drosophila BIP signal peptide (secretion signal) (N); made in house; host or cells: Trichoplusia ni Tnao38 insect cells (baculovirus)
T1 sequence (Q9SGP2 17-618): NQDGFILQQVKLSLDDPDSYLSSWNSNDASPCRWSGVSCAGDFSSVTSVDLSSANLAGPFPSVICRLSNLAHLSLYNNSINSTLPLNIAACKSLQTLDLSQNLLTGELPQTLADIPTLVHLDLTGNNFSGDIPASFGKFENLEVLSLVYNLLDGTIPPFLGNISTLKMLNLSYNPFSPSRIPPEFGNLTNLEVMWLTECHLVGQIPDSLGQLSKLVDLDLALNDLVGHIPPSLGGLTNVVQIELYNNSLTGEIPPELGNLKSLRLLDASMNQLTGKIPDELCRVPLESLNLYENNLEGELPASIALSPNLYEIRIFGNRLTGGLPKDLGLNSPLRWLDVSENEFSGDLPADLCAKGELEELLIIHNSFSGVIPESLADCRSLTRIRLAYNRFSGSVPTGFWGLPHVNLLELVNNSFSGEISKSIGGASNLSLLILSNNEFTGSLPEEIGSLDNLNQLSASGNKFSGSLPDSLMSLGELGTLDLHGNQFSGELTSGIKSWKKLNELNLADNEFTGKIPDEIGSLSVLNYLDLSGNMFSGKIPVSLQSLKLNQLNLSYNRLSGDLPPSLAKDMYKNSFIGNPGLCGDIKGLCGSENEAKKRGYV
Nature of the experiment: GCI binding kinetics, peptide vs immobilised HSL1. Conditions: HSL1 on surface, peptide as analyte, 25 °C, pH 5, one-to-one binding model, read-out: ka association rate constant, peptide vs HSL1 (GCI). The method, then:
25 μM of HSL1 were biotinylated with the biotin ligase BirA[60] (2 μM) for 1 h at 30 °C, in a volume of 200 μl. The buffer used in the reaction was: 25 mM Tris pH 8, 150 mM NaCl, 5 mM MgCl2, 2 mM 2-Mercaptoethanol, 0.15 mM Biotin, 2 mM ATP. Biotinylated proteins were purified by size-exclusion chromatography in 20 mM citric acid pH5, 150 mM NaCl and subsequently used in GCI experiments.
GCI experiments were performed with the Creoptix WAVE system (Creoptix AG, Switzerland) using 4PCP WAVE chips (thin quasiplanar polycarboxylate surface; Creoptix, Switzerland). Chips were first conditioned with borate buffer (100 mM sodium borate pH 9.0, 1 M NaCl; Xantec, Germany). Chips were activated with 1:1 mix of 400 mM N-(3-dimethylaminopropyl)-N′-ethylcarbodiimide hydrochloride and 100 mM N-hydroxysuccinimide (Xantec, Germany). Streptavidin (50 µg/ml; Sigma, Germany) in 10 mM sodium acetate pH 5.0 (Sigma, Germany) was immobilized on the chip surface until saturation was reached, followed by passivation of the surface with BSA (50 µg/ml; Sigma, Germany) in 10 mM sodium acetate pH5.0, and a final quenching step with 1 M ethanolamine pH 8.0 (Xantec, Germany). Then, biotinylated HSL1 (ligand) (80–100 μg/ml) was captured on the streptavidin surface until the desired density was reached. Normal kinetic analysis were performed to measure the binding of IDL peptides (analyte) to HSL1. Experiments were performed at 25 °C with a 1:2 dilution series from a maximum concentration of 5–50 μM peptide, in 20 mM citrate pH 5, 250 mM NaCl, 0.005% Tween-20 v/v. To analyze the interaction kinetics of the co-receptor SERK1, 2 µM of the protein was used as a higher dilution with running buffer containing 5 µM of the IDL peptides being tested. Blank injections were used for double referencing and a dimethylsulfoxide (DMSO) calibration curve for bulk correction. Analysis and correction of the obtained data were performed using the Creoptix WAVE control software (correction applied: X and Y offset; DMSO calibration; double referencing). One-to-one binding model was used for both experiments.

Experiment [2] deals with T2, BAM1 LRR ectodomain (Arabidopsis thaliana, UniProt O49545).
T2 construct: BAM1 (residues 20–637, AT5G65700); azurocidin or Drosophila BIP signal peptide (secretion signal) (N); made in house; host or cells: Trichoplusia ni Tnao38 insect cells (baculovirus)
T2 sequence (O49545 20-637): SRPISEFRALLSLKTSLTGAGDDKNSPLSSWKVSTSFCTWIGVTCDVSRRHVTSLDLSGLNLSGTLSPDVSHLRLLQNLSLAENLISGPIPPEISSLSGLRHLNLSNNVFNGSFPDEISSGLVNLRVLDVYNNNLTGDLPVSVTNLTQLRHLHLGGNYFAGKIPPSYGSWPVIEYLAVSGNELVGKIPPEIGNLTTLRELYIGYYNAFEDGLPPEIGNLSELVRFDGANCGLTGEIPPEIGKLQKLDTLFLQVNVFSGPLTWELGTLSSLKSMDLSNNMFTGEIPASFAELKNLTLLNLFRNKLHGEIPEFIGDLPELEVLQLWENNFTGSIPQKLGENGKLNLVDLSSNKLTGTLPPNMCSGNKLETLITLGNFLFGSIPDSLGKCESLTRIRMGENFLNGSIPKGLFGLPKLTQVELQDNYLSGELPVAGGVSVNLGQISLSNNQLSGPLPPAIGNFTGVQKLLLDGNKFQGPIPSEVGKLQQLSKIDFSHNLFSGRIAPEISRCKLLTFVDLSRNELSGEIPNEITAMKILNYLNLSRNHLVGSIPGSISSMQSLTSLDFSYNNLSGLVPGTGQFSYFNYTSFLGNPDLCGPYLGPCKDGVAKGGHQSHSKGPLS
Nature of the experiment: ITC, peptide titrated into BAM1 ectodomain. The experiment is classed as binding. An excerpt: All genes used for protein expression in Trichoplusia ni Tnao38 cells[46] were codon optimized and cloned into a modified pFastBac vector (Geneva Biotech) providing an azurocidin[47] or Drosophila BIP signal peptide, a TEV (tobacco etch virus protease) cleavage site and a Strep-9xHis tandem affinity tag at their carboxy terminus. The genes used are coding for the Arabidopsis ectodomains of HSL1 (residues 17-618, AT1G28440), HAE (residues 20-620, AT4G28490) SERK1 (residues 24–213, AT1G71830), and BAM1 (residues 20–637, AT5G65700). To perform Grating-coupled interferometry (GCI) experiments, HSL1 was fused to a non-cleavable Avi-tag[49],[50]. Baculovirus generation was carried out in DH10 cells and virus amplification was done in Spodoptera frugiperda Sf9 cells. For protein expression, Trichoplusia ni Tnao38 cells were infected with HAE, HSL1, BAM1 and SERK1 virus with a multiplicity of infection (MOI) of 3. The cells were grown 1 day at 28 °C and two days at 22 °C at 110 rpm. After every expression round, secretion of our proteins was detected using an anti-His-HRP conjugated antibody from Roche (Ref:11965085001) in a 1:2000 dilution. […] Next, affinity tags were removed by incubating the purified proteins with recombinant His-tagged TEV protease, in a 1:50 ratio. The cleaved tag and the protease were separated from the ectodomains by a second Ni^2+ affinity step. Proteins were further purified by size-exclusion chromatography on a Superdex 200 Increase 10/300 GL column (GE Healthcare) equilibrated in 20 mM citric acid pH 5.0, 150 mM NaCl. Peak fractions containing the single proteins or complexes were concentrated using Amicon Ultra concentrators (Millipore, MWCO 10,000 for SERK1 and 30,000 for HAE, HSL1, and BAM1) and used for crystallization or biochemical experiments. Proteins were analyzed for purity and structural integrity by SDS-PAGE.
Experiments were performed at 25 °C using a MicroCal PEAQ-ITC (Malvern Instruments) with a 200 µL standard cell and a 40 μL titration syringe. HSL1, BAM1, and SERK1 proteins were gel-filtrated into the ITC buffer (20 mM sodium citrate pH 5.0, 150 mM NaCl). Molar protein concentrations for HSL1, BAM1, and SERK1 were calculated using their molar extinction coefficient and a molecular weight of 74,896 and 27,551 Da, respectively as previously determined. A typical experiment consisted of injecting 2 μL of a range between 75 and 600 μM solution of ligand into 10 to 30 μM HAE, HSL1, or BAM1 solution in the cell at 150 s intervals and 500 rpm stirring speed. The SERK1 vs HAE/HSL1-peptide experiments were performed by titrating 100 µM SERK1 in the cell, using the same injection pattern. ITC data were corrected for the heat of dilution by subtracting the mixing enthalpies for titrant solution injections into protein-free ITC buffer. Experiments were done in duplicates or triplicates, otherwise specified, and data were analyzed using the MicroCal PEAQ-ITC Analysis Software provided by the manufacturer. […] The N values were fitted to 1 in the analysis.

For experiment [3], the target named is T1, HSL1 ectodomain. Nature of the experiment: ITC, peptide titrated into isolated HSL1 ectodomain. Conditions: peptide (syringe) into HSL1 ectodomain (cell), 25 °C, 20 mM sodium citrate pH 5.0, 150 mM NaCl, N fitted to 1, mean ± SD of at least two independent experiments, n.d = no binding detected. From the text:
All genes used for protein expression in Trichoplusia ni Tnao38 cells[46] were codon optimized and cloned into a modified pFastBac vector (Geneva Biotech) providing an azurocidin[47] or Drosophila BIP signal peptide, a TEV (tobacco etch virus protease) cleavage site and a Strep-9xHis tandem affinity tag at their carboxy terminus. The genes used are coding for the Arabidopsis ectodomains of HSL1 (residues 17-618, AT1G28440), HAE (residues 20-620, AT4G28490) SERK1 (residues 24–213, AT1G71830), and BAM1 (residues 20–637, AT5G65700). To perform Grating-coupled interferometry (GCI) experiments, HSL1 was fused to a non-cleavable Avi-tag[49],[50]. […] After every expression round, secretion of our proteins was detected using an anti-His-HRP conjugated antibody from Roche (Ref:11965085001) in a 1:2000 dilution. […] Proteins were analyzed for purity and structural integrity by SDS-PAGE.
Experiments were performed at 25 °C using a MicroCal PEAQ-ITC (Malvern Instruments) with a 200 µL standard cell and a 40 μL titration syringe. […] Molar protein concentrations for HSL1, BAM1, and SERK1 were calculated using their molar extinction coefficient and a molecular weight of 74,896 and 27,551 Da, respectively as previously determined. […] Experiments were done in duplicates or triplicates, otherwise specified, and data were analyzed using the MicroCal PEAQ-ITC Analysis Software provided by the manufacturer. […]
A general note: Isothermal titration calorimetry measures the heat released or taken up as one component is titrated into another.

As usually defined, the Kd is the concentration at which binding is half-saturated. A lower Kd goes with higher affinity.

Square brackets hold non-standard residues; d marks the D form. Peptide text beside a SMILES is read from it. Hyp = O=C(O)[C@@H]1C[C@@H](O)CN1

For `CC(C)[C@H](NC(=O)[C@@H]1CCCN1)C(=O)N1CCC[C@H]1C(=O)N[C@@H](C)C(=O)N[C@@H](CO)C(=O)N[C@@H](C)C(=O)N1C[C@H](O)C[C@H]1C(=O)N[C@@H](CO)C(=O)N[C@@H](CCCNC(=N)N)C(=O)N[C@@H](CCCCN)C(=O)N[C@@H](Cc1c[nH]cn1)C(=O)N[C@@H](CC(N)=O)C(=O)O` [IDL4, IDA-LIKE] (H-PVPASA[Hyp]SRKHN-OH), the kon in experiment [1] came to 460000 M⁻¹ s⁻¹.
Turning to `CC(C)[C@H](NC(=O)[C@@H]1CCCN1)C(=O)N1CCC[C@H]1C(=O)N[C@H](C(=O)N[C@@H](CO)C(=O)NCC(=O)N1C[C@H](O)C[C@H]1C(=O)N[C@@H](CO)C(=O)N[C@@H](CCCNC(=N)N)C(=O)N[C@@H](CCCCN)C(=O)N[C@@H](Cc1c[nH]cn1)C(=O)N[C@@H](CC(N)=O)C(=O)O)[C@@H](C)O` [IDL3, IDA-LIKE] (H-PVPTSG[Hyp]SRKHN-OH), the kon in experiment [1] came to 700000 M⁻¹ s⁻¹.
Regarding `CC[C@H](C)[C@H](NC(=O)[C@@H]1CCCN1)C(=O)N1CCC[C@H]1C(=O)N1CCC[C@H]1C(=O)N[C@@H](CO)C(=O)N[C@@H](C)C(=O)N1C[C@H](O)C[C@H]1C(=O)N[C@@H](CO)C(=O)N[C@@H](CCCCN)C(=O)N[C@@H](CCCNC(=N)N)C(=O)N[C@@H](Cc1c[nH]cn1)C(=O)N[C@@H](CC(N)=O)C(=O)O` [IDA, INFLORESCENCE DEFICIENT IN ABSCISSION] (H-PIPPSA[Hyp]SKRHN-OH), the kon in experiment [1] amounted to 225000 M⁻¹ s⁻¹. For the same molecule, in experiment [2] (ITC, peptide into BAM1 ectodomain (cell), 25 °C, 20 mM sodium citrate pH 5.0, 150 mM NaCl, N fitted to 1, mean ± SD of at least two independent experiments, n.d = no binding detected), the “Kd (dissociation constant), peptide vs BAM1” value was “did not detect interaction”.
Take `CC(C)C[C@H](NC(=O)[C@@H](N)CCCNC(=N)N)C(=O)N[C@H](C(=O)N1C[C@H](O)C[C@H]1C(=O)N[C@@H](CO)C(=O)NCC(=O)N1C[C@H](O)C[C@H]1C(=O)N[C@@H](CC(N)=O)C(=O)N1CCC[C@H]1C(=O)N[C@@H](CC(C)C)C(=O)N[C@@H](Cc1c[nH]cn1)C(=O)N[C@@H](CC(N)=O)C(=O)O)C(C)C` [CLE9] (H-RLV[Hyp]SG[Hyp]NPLHN-OH): the “Kd (dissociation constant), peptide vs HSL1” value in experiment [3] was “did not detect binding”. Moreover, the Kd in experiment [2] came out at 94 ± 56 nM.
